Results on two compounds are retold here after patent publication US6403626B1, “Benzimidazole derivatives” (Synaptic Pharmaceutical Corporation, priority 1994, dated 2002).

Data set [1] concerns the target T1, α2B Human Adrenergic Receptor (Homo sapiens, UniProt P18089).
T1 construct: expressed in transfected cells; host or cells: Y-1 cells
T1 sequence (P18089 1-450): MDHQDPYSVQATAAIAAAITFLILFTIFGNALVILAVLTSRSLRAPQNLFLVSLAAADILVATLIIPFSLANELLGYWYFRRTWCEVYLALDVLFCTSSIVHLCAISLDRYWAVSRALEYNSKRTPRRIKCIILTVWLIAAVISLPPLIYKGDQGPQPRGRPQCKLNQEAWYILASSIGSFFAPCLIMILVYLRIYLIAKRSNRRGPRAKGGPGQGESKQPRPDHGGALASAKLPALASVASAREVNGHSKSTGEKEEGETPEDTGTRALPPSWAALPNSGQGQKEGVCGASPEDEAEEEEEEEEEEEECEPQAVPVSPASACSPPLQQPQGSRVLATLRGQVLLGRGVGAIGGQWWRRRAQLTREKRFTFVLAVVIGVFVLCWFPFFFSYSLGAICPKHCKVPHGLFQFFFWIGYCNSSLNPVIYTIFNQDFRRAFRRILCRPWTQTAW
The data set can be described thus: Equilibrium competition binding, [3H] rauwolscine, membranes of transfected Y-1 cells. The protocol: (§1) Binding and functional assays were performed using stably transfected human alpha adrenergic receptors. Equilibrium competition binding assays were performed with membrane preparations from cultured LM(tk-) cells stably transfected with the cloned human adrenoceptor subtypes except for α2b, which was expressed in Y-1 cells, using [^3H] prazosin for α1 receptors and [^3H] rauwolscine for α2 receptors.
(§2) Stable cell lines were selected as described above.
Transfected cells from culture flasks were scraped into 5 ml of 5 mM Tris-HCl, 5 mM EDTA, pH 7.5, and lysed by sonication. The cell lysates were centrifuged at 1000 rpm for 5 min at 4° C., and the supernatant was centrifuged at 30,000×g for 20 min at 4° C. The pellet was suspended in 50 mM Tris-HCl, 1 mM MgCl2, and 0.1% ascorbic acid at pH 7.5. Binding of α2 antagonist [^3H] rauwolscine ([…]) to membrane preparations of LM(tk-) cells was done in a final volume of 0.25 ml and incubated at 37° C. for 20 min. Nonspecific binding was determined in the presence of 10 μM phentolamine. The reaction was stopped by filtration through GF/B filters using a cell harvester.

The target of data set [2] is T2, α2C Human Adrenergic Receptor (Homo sapiens, UniProt P18825).
T2 sequence (P18825 1-462): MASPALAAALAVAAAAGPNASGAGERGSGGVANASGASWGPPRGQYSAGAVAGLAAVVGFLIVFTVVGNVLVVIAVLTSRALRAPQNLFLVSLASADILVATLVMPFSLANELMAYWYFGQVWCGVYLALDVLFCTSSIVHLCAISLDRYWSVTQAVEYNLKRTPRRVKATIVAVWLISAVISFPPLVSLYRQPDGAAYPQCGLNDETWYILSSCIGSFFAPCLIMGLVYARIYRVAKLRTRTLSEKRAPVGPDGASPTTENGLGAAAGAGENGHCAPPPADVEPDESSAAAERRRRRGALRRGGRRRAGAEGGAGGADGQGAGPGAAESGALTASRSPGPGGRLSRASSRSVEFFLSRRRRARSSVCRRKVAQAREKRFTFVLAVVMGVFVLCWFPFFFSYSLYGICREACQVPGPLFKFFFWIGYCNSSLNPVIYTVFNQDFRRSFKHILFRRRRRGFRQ
The data set can be described thus: Equilibrium competition binding, [3H] rauwolscine, membranes of transfected LM(tk-) cells.

In data set [3] the target is T1, α2B Human Adrenergic Receptor. The class given is cell-based. As to the method: as §1, §2
(§3) The agonist activity (expressed as pEC50) was measured as a function of the ability to inhibit the forskolin-stimulated synthesis of cyclic adenosine monophosphate (cAMP). The stably transfected cells were incubated in Ham's F10 with 5 mM theophylline, 10 mM HEPES, 10 μM pargyline, and/or appropriate concentrations of forskolin for 20 min at 37° C. in 5% CO2. The tested compounds were then added to a final concentration of 0.001 nM to 1 μM and incubated for an additional 15 min at 37° C. in 5% CO2. The medium was aspirated and the reaction was stopped by the addition of 100 mM HCl . […] The plates are stored at 4° C. for 15 min and assayed to determine the linear concentration of cAMP. The appropriate dilution is interpolated from the standard curve of cold cAMP. The assessment of cAMP formation is determined by radioimmunoassay (cAMP radioimmunoassay kit; Advanced Magnetics, Cambridge, Mass.). Radioactivity was quantified using a Packard COBRA Auto Gamma counter, equipped with data reduction software.

For data set [4], the target named is T2, α2C Human Adrenergic Receptor. The class given is cell-based. More on the design: The entire coding region of α2C (1383 bp), including 2 bp of 5′ UT and 400 bp of 3′ UT; expressed in transfected cells; host or cells: LM(tk-) cells. The settings on record: for I.A Alpha-2 C: functional cAMP assay. As to the method:
as §1
The insert housing this coding region was an @ 1.8 kb Ncol/EcoRI human spleen genomic fragment which was end-blunted by either T4 polymerase or Klenow fragment of DNA polymerase. Stable cell lines were selected as described above.
as §3

`Cc1cc(NC2=NCCN2)c(Br)c2[nH]cnc12` [Example 59, 4-Bromo-7-methyl-5-(2-imidazolin-2-ylamino)Benzimidazole] returned a melting point of 242 to 244 °C. Moreover, in data set [1], the Ki is 7.94 nM. In data set [2], this compound gave a Ki of 16.6 nM. Besides, in data set [3], the concentration for a half-maximal effect (EC50) is 40.7 nM and the “I.A Alpha-2 B” value is listed as 0.90. Moreover, in data set [4], the EC50 was 1.29 nM and the “I.A Alpha-2 C” value is on record as 1.00.
Compound `Brc1cc(NC2=NCCN2)c(Br)c2[nH]cnc12` [Example 58, 4,7-Dibromo-5-(2-imidazolin-2-ylamino)Benzimidazole] returned a melting point of 320 to 321 °C. Further, the inhibitory constant (Ki) in data set [1] is 174 nM. Moreover, the inhibitory constant (Ki) in data set [2] is 30.9 nM. In addition, in data set [3], the half-maximal effective concentration (EC50) is 28.2 nM and the “I.A Alpha-2 B” value stood at 0.50. In data set [4], the EC50 is 3.24 nM and the “I.A Alpha-2 C” value is 1.00.
